Source: PubChem BioAssay (NCI)
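Protocol summary: plate cells (96-well), add compound at 5 concentrations, incubate 48 h, interpolate endpoints linearly. GI50 marks 50% less growth. The concentration for full growth arrest is given as TGI.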

Tests used:
Test in all cases: NCI anticancer screen, dose series, 48 h
HS 578T breast = tested on: HS 578T breast
SNB-75 CNS = tested on: SNB-75 CNS
MOLT-4 leukemia = tested on: MOLT-4 leukemia
OVCAR-3 ovarian = tested on: OVCAR-3 ovarian
M14 melanoma = tested on: M14 melanoma
NCI-H23 lung = tested on: NCI-H23 lung
SF-539 CNS = tested on: SF-539 CNS
HCC-2998 colon = tested on: HCC-2998 colon
A549 NSCLC = tested on: A549 NSCLC
MCF7 breast = tested on: MCF7 breast
NCI-H460 lung = tested on: NCI-H460 lung
SF-268 CNS = tested on: SF-268 CNS
HOP-62 NSCLC = tested on: HOP-62 NSCLC
SK-OV-3 ovarian = tested on: SK-OV-3 ovarian
MALME-3M melanoma = tested on: MALME-3M melanoma
DU-145 prostate = tested on: DU-145 prostate
RPMI-8226 leukemia = tested on: RPMI-8226 leukemia
NCI-H226 lung = tested on: NCI-H226 lung
SK-MEL-28 melanoma = tested on: SK-MEL-28 melanoma
SR leukemia = tested on: SR leukemia
OVCAR-4 ovarian = tested on: OVCAR-4 ovarian
ACHN renal = tested on: ACHN renal
IGROV1 ovarian = tested on: IGROV1 ovarian
HOP-92 NSCLC = tested on: HOP-92 NSCLC
SN12C renal = tested on: SN12C renal
HT29 colon = tested on: HT29 colon
OVCAR-8 ovarian = tested on: OVCAR-8 ovarian
UO-31 renal = tested on: UO-31 renal
MDA-MB-231 breast = tested on: MDA-MB-231 breast
HL-60(TB) leukemia = tested on: HL-60(TB) leukemia
UACC-62 melanoma = tested on: UACC-62 melanoma
K-562 leukemia = tested on: K-562 leukemia
LOX IMVI melanoma = tested on: LOX IMVI melanoma
SK-MEL-5 melanoma = tested on: SK-MEL-5 melanoma
NCI-H522 lung = tested on: NCI-H522 lung
SNB-19 CNS = tested on: SNB-19 CNS
BT-549 breast = tested on: BT-549 breast
HCT-116 colon = tested on: HCT-116 colon
HCT-15 colon = tested on: HCT-15 colon
SW-620 colon = tested on: SW-620 colon
UACC-257 melanoma = tested on: UACC-257 melanoma
TK-10 renal = tested on: TK-10 renal
KM12 colon = tested on: KM12 colon
OVCAR-5 ovarian = tested on: OVCAR-5 ovarian
SK-MEL-2 melanoma = tested on: SK-MEL-2 melanoma
CAKI-1 renal = tested on: CAKI-1 renal
PC-3 prostate = tested on: PC-3 prostate
786-0 renal = tested on: 786-0 renal
MDA-MB-435 = tested on: MDA-MB-435
T-47D breast = tested on: T-47D breast
COLO 205 colon = tested on: COLO 205 colon
RXF 393 renal = tested on: RXF 393 renal
SF-295 CNS = tested on: SF-295 CNS
U251 CNS = tested on: U251 CNS
EKVX NSCLC = tested on: EKVX NSCLC
CCRF-CEM leukemia = tested on: CCRF-CEM leukemia
NCI/ADR-RES ovarian = tested on: NCI/ADR-RES ovarian

## COC1=C(OC)C(=O)C(C/C=C(\C)CC/C=C(\C)CC/C=C(\C)CC/C=C(\C)CC/C=C(\C)CC/C=C(\C)CC/C=C(\C)CC/C=C(\C)CC/C=C(\C)CCC=C(C)C)=C(C)C1=O
HS 578T breast
  GI50: > 100 µM
  TGI: > 100 µM
SNB-75 CNS
  GI50: > 100 µM
  TGI: > 100 µM
MOLT-4 leukemia
  GI50: > 100 µM
  TGI: > 100 µM
OVCAR-3 ovarian
  GI50: > 100 µM
  TGI: > 100 µM
M14 melanoma
  GI50: > 100 µM
  TGI: > 100 µM
NCI-H23 lung
  GI50: > 100 µM
  TGI: > 100 µM
SF-539 CNS
  GI50: > 100 µM
  TGI: > 100 µM
HCC-2998 colon
  GI50: > 100 µM
  TGI: > 100 µM
A549 NSCLC
  GI50: > 100 µM
  TGI: > 100 µM
MCF7 breast
  GI50: > 100 µM
  TGI: > 100 µM
NCI-H460 lung
  GI50: > 100 µM
  TGI: > 100 µM
SF-268 CNS
  GI50: > 100 µM
  TGI: > 100 µM
HOP-62 NSCLC
  GI50: > 100 µM
  TGI: > 100 µM
SK-OV-3 ovarian
  GI50: > 100 µM
  TGI: > 100 µM
MALME-3M melanoma
  GI50: > 100 µM
  TGI: > 100 µM
DU-145 prostate
  GI50: > 100 µM
  TGI: > 100 µM
RPMI-8226 leukemia
  GI50: > 100 µM
  TGI: > 100 µM
NCI-H226 lung
  GI50: > 100 µM
  TGI: > 100 µM
SK-MEL-28 melanoma
  GI50: > 100 µM
  TGI: > 100 µM
SR leukemia
  GI50: > 100 µM
  TGI: > 100 µM
OVCAR-4 ovarian
  GI50: > 100 µM
  TGI: > 100 µM
ACHN renal
  GI50: > 100 µM
  TGI: > 100 µM
IGROV1 ovarian
  GI50: > 100 µM
  TGI: > 100 µM
HOP-92 NSCLC
  GI50: > 100 µM
  TGI: > 100 µM
SN12C renal
  GI50: > 100 µM
  TGI: > 100 µM
HT29 colon
  GI50: > 100 µM
  TGI: > 100 µM
OVCAR-8 ovarian
  GI50: > 100 µM
  TGI: > 100 µM
UO-31 renal
  GI50: > 100 µM
  TGI: > 100 µM
MDA-MB-231 breast
  GI50: > 100 µM
  TGI: > 100 µM
HL-60(TB) leukemia
  GI50: > 100 µM
  TGI: > 100 µM
UACC-62 melanoma
  GI50: > 100 µM
  TGI: > 100 µM
K-562 leukemia
  GI50: > 100 µM
  TGI: > 100 µM
LOX IMVI melanoma
  GI50: > 100 µM
  TGI: > 100 µM
SK-MEL-5 melanoma
  GI50: > 100 µM
  TGI: > 100 µM
NCI-H522 lung
  GI50: > 100 µM
  TGI: > 100 µM
SNB-19 CNS
  GI50: > 100 µM
  TGI: > 100 µM
BT-549 breast
  GI50: > 100 µM
  TGI: > 100 µM
HCT-116 colon
  GI50: > 100 µM
  TGI: > 100 µM
HCT-15 colon
  GI50: > 100 µM
  TGI: > 100 µM
SW-620 colon
  GI50: > 100 µM
  TGI: > 100 µM
UACC-257 melanoma
  GI50: > 100 µM
  TGI: > 100 µM
TK-10 renal
  GI50: > 100 µM
  TGI: > 100 µM
KM12 colon
  GI50: > 100 µM
  TGI: > 100 µM
OVCAR-5 ovarian
  GI50: > 100 µM
  TGI: > 100 µM
SK-MEL-2 melanoma
  GI50: > 100 µM
  TGI: > 100 µM
CAKI-1 renal
  GI50: > 100 µM
  TGI: > 100 µM
PC-3 prostate
  GI50: > 100 µM
  TGI: > 100 µM
786-0 renal
  GI50: > 100 µM
  TGI: > 100 µM
MDA-MB-435
  GI50: > 100 µM
  TGI: > 100 µM
T-47D breast
  GI50: > 100 µM
  TGI: > 100 µM
COLO 205 colon
  GI50: > 100 µM
  TGI: > 100 µM
RXF 393 renal
  GI50: > 100 µM
  TGI: > 100 µM
SF-295 CNS
  GI50: > 100 µM
  TGI: > 100 µM
U251 CNS
  GI50: > 100 µM
  TGI: > 100 µM
EKVX NSCLC
  GI50: > 100 µM
  TGI: > 100 µM
CCRF-CEM leukemia
  GI50: > 100 µM
  TGI: > 100 µM
NCI/ADR-RES ovarian
  GI50: > 100 µM
  TGI: > 100 µM
